Where two headings read alike, the source gives them in different places.
Columns and labels:
[1] = Flash photolysis kinetics of carboxylic acid formation (H+ release, cresol red); type: physicochemical; details: pH 8.0, 20° C.; for τ, time constant of phenylacetate formation and H+ release after flash photolysis, free: zero [Ca2+]
Excerpt: When a diazoketone is photolyzed in aqueous solution the major ultimate product is a carboxylic acid. […] Product formation is thus accompanied by proton release generated (Compound 3c, Scheme I). Product formation is thus accompanied by proton release which is readily monitored spectroscopically if a suitable acid-base indicator is used. Cresol red (pKa 8.2) is chosen to monitor proton release following flash photolysis of the diazo compounds in aqueous solutions adjusted to pH 8. […] The absorbance of cresol red at 572 nm decreases with decreasing pH. As the carboxylic acid product, 3c, is generated, the solution acidifies and the transmittance of the sample is expected to rise. […] The chemical structure of the photo-labile chromophore in diazo-3 is essentially identical to that in diazo-2 (FIG. 6, Scheme IV). Correspondingly, flash photolysis of diazo-3 under identical conditions yield experimental traces which were qualitatively the same as those obtained for diazo-2. In Table I is presented the characteristic time constants for carboxylic acid formation following flash photolysis of diazo-2 and diazo-3. Flash photolysis of Ca^2+ -bound diazo-2 produced the carboxylic acid with a characteristic time of 134 μs. The time slowed to 433 μs when Ca^2+ -free diazo-2 was photolyzed.
Diazo-2 was dissolved at 70 μM concentration in 100 mM KCl, 40 μM H4. BAPTA, and enough cresol red to yield OD572 =0.1 after the solution has been adjusted to pH 8. Transmitted light intensity at 572 nm was monitored using an HG-Xe.arc lamp, a monochromator, a photo multiplier and a Biomation transient recorder. Each small division of the ordinate corresponds to 0.002 absorbance unit. The small upward spike at time zero is an optical artifact from the xenon flash lamp. The solid trace is from the sample containing diazo-2. For comparison, the dotted trace is from a photochemically inert sample containing cresol red in 100 mM KCl at pH about 8.
Kinetics of the conversion of diazo-2 and diazo-3 to the carboxylic acid products and the kinetics of Ca^2+ binding by photolyzed diazo-2 were measured by flash photolysis and pH monitoring. The experiments were done in a Dialog apparatus (Garching, FRG) normally used for temperature jumps. The xenon flash lamp was a Model 6100SP7 (Photochemical Research Associates, London, Ontario, Canada) modified to give a light pulse with a full width at half maximum of 85 μs. The output of the xenon lamp was passed through a UG-2 filter to yield broad-band UV radiation in the 330-390 range. Since neither the flash lamp nor the kinetic spectrometer was optimized for light energy, the response amplitudes achieved in the experiments are far from those attainable during a biological experiment. […]

[2] = Quantum efficiency and completion of photolysis; type: physicochemical; details: for Φ quantum efficiency of photolysis, free: zero [Ca2+]
Experimental: Spectra were obtained after 0, 2, 5, 9, 16, 28, 46, 80, 150, 285, 505 and 903 sec of 365-nm illumination at 7.82×10^- 9 einsteins cm^-2 s^-1 from Spectroline lamp. For clarity only the 0-, 9-, 28-, 46-, 80-, 150-, and 505-s spectra are reproduced herein. The 505- and 903-s spectra were identical, confirming completion of photolysis after those times. Solutions were at 22±2° C.
The method was as described in FIG. 1B except that the EGTA was replaced by 2 mM CaCl2, and spectra were measured after 0-, 50-, 100-, 203-, 412-, 840-, 1730-, 4080-, and 8000-s illumination. The last two spectra were identical, confirming completion. For clarity the 50- and 8000-s spectra are omitted.
The photolysis quantum efficiencies of diazo chelators were determined by alternately irradiating a buffered solution of the substrate with a known intensity of longwave UV light, and measuring the absorbance spectrum, in apparatus described by S. R. Adams, et al. (1988), supra.

[3] = Yield of high affinity chelator / low-affinity side product after photolysis; type: physicochemical; details: after photolysis
Experimental: Because of the direct conjugation of the dialkylamine moiety with the diazoketone group, diazo-2 has a large absorbance in the 350-400 nm range, which shifts 50 nm to shorter wavelengths on binding Ca^2+ (FIG. 1A). The dissociation constant for Ca^2+ is relatively high, at 2.2 μM, due to the electron withdrawing ability of the carbonyl group. Photolysis occurs at 365 nm with a quantum yield of 0.030. The peak at […] in zero Ca^2+ decreases to near baseline giving a spectrum similar to that of unsubstituted BAPTA, although a small peak remains at 355 nm (FIG. 1B). […] The reaction of diazo-2 with dilute aqueous acid should give the same product whose absorbance spectrum indeed matched that of the residual peak at 355 nm after photolysis in low Ca^2+. […] Once the extinction coefficient for the hydroxyacetyl derivative was known, the amount of the side product arising from photolysis is calculated to be about 10%.

[4] = Mg2+ affinity in Mg/EGTA buffers; type: binding; details: 0.1-0.15M ionic strength, pH 7.0-7.4, 20-23° C.
Experimental: Ca^2+ -binding constants for chelators before and after photolysis were determined by monitoring UV spectra during titration of EGTA or HEEDTA buffers to varying free Ca^2+ levels.
Free [Mg^2+ ] was likewise controlled by Mg/EGTA buffers, assuming an apparent dissociation constant for the Mg.EGTA complex (including its monoprotonated form) of 6 mM at pH 7.60 in 0.1M ionic strength; see R. Y. Tsien, et al. (1986) and A. E. Martell, et al. (1974).

[5] = after photolysis, read-out: Kd (Mg2+), after photolysis

| Structure (SMILES) | τ, time constant of phenylacetate formation and H+ release after flash photolysis, free [1] [μs] | τ, time constant of phenylacetate formation and H+ release after flash photolysis, free ([1]; listed as Diazo-3) [μs] | Φ quantum efficiency of photolysis, free [2] | Photolysis yield (yield of high affinity Ca2+ chelator after photolysis) [3] | Kd [4, 5] [mM] | τ, time constant of phenylacetate formation and H+ release after flash photolysis, +Ca2+ ([1]; saturating [Ca2+], additional fast alkalinization component present) [μs] | quantum yield of photolysis ([2]; 365 nm) | illumination time to completion of photolysis, free ([2]; 365 nm, 7.82×10^-9 einsteins cm^-2 s^-1, absence of Ca2+, 8 μM) [s] | Φ quantum efficiency of photolysis, +Ca2+ ([2]; saturating [Ca2+]) | Kd ([4]; before photolysis, read-out: Kd (Mg2+), before photolysis) [mM] |
| --- | --- | --- | --- | --- | --- | --- | --- | --- | --- | --- |
| COc1cc(C(=O)C=[N+]=[N-])ccc1N(CC(=O)O)CC(=O)O [diazo-3, 2-methoxy-4-(diazoacetyl)aniline-N, N-diacetic acid] | 239 | 238 | 0.048 | 0 | ~20 | – | – | – | – | – |
| Cc1ccc(N(CC(=O)O)CC(=O)O)c(OCCOc2cc(C(=O)C=[N+]=[N-])ccc2N(CC(=O)O)CC(=O)O)c1 [diazo-2, 1-(2-bis(carboxymethyl)amino-5-methyl) phenoxy-2-(2-bis(carboxymethyl)amino-5-(diazoacetyl)phenoxy) ethane] | 433 | – | 0.057 | 90 | 3.4 | 134 | 0.030 | ≤ 505 | 0.030 | 5.5 |

Source: patent US5141627A, “Chelators whose affinity for calcium ion is increased by illumination” (The Regents of the University of California, priority 1989, dated 1992)
